Holding throughout (type): functional
Test [1] has as its system Enterococcus faecalis. In words: Minimum inhibitory concentration against Enterococcus faecalis (VanA, BM4166).
Test [2] concerns Enterococcus faecalis. In words: Minimum inhibitory concentration against Enterococcus faecalis (VanB, ATCC 51299).
A further test concerns Staphylococcus aureus. In words: Minimum inhibitory concentration against Staphylococcus aureus (ATCC 25923).

SMILES strings stand for the structures. In brackets after ≈: the same amount, converted by molar mass.

What is called MIC is the lowest concentration found to suppress growth. High values mean a need for much substance, low ones inhibition by little substance. `CN[C@H](CC(C)C)C(=O)N[C@H]1C(=O)N[C@@H](CC(N)=O)C(=O)N[C@H]2C(=O)N[C@H]3C(=O)N[C@H](C(=O)N[C@H](C(=O)O)c4cc(O)cc(O)c4-c4cc3ccc4O)[C@H](O)c3ccc(c(Cl)c3)Oc3cc2cc(c3O[C@@H]2O[C@H](CO)[C@@H](O)[C@H](O)[C@H]2O[C@H]2C[C@](C)(N)[C@H](O)[C@H](C)O2)Oc2ccc(cc2Cl)[C@H]1O` [VANCOMYCIN]: the minimal inhibitory concentration (MIC) is over 100 µg/mL in the test on Enterococcus faecalis [1], 25 µg/mL (≈ 17.3 µM) in the test with Enterococcus faecalis [2] and 0.8 µg/mL (≈ 0.552 µM) against Staphylococcus aureus.

Take `COC(=O)C1NC(=O)C2NC(=O)C(NC(=O)C3NC(=O)C4NC(=O)[C@H](NC(=O)[C@H](N)c5ccc(O)c(c5)Oc5cc4cc(O)c5C)[C@H](O)c4ccc(cc4)Oc4cc3cc(c4OC)Oc3ccc(cc3)C2O)c2ccc(O)c(c2)-c2c(OC)cc(O)cc21` (stereo partly specified): the MIC was over 100 µg/mL against Enterococcus faecalis [1], 3.2 µg/mL (≈ 2.66 µM) in the test on Enterococcus faecalis [2] and 3.2 µg/mL (≈ 2.66 µM) in the test on Staphylococcus aureus.

In the case of `Cc1c(O)cc2cc1Oc1cc(ccc1O)[C@@H](N)C(=O)N[C@H]1C(=O)N[C@@H]2C(=O)N[C@H]2C(=O)N[C@H]3C(=O)N[C@H](C(=O)N[C@@H](C(=O)O)c4cc(O)cc(O[C@H]5O[C@H](CO)[C@@H](O)[C@H](O)[C@@H]5O)c4-c4cc3ccc4O)[C@H](O[C@H]3C[C@@H](N)[C@@H](O)[C@H](C)O3)c3ccc(cc3)Oc3cc2cc(c3O[C@H]2O[C@@H](CO[C@H]3O[C@H](C)[C@@H](O)[C@H](O)[C@@H]3O)[C@H](O)[C@@H](O)[C@@H]2O[C@H]2O[C@H](CO)[C@@H](O)[C@H](O)[C@@H]2O[C@H]2O[C@H](CO)[C@@H](O)[C@@H]2O)Oc2ccc(cc2)[C@H]1O` [RISTOCETIN], the minimum inhibitory concentration (MIC) against Enterococcus faecalis [1] was over 100 µg/mL; in the test on Enterococcus faecalis [2], 12.5 µg/mL (≈ 6.09 µM); with Staphylococcus aureus, 1.6 µg/mL (≈ 0.779 µM).

With `CN[C@H](CC(C)C)C(=O)N[C@H]1C(=O)N[C@@H](CC(N)=O)C(=O)N[C@H]2C(=O)N[C@H]3C(=O)N[C@H](C(=O)N[C@H](C(=O)O)c4cc(O)cc(O)c4-c4cc3ccc4O)[C@H](O)c3ccc(c(Cl)c3)Oc3cc2cc(c3O)Oc2ccc(cc2Cl)[C@H]1O` [VANCOMYCIN AGLYCON], the MIC was over 100 µg/mL against Enterococcus faecalis [1], 25 µg/mL (≈ 21.9 µM) against Enterococcus faecalis [2] and 0.8 µg/mL (≈ 0.699 µM) against Staphylococcus aureus.

For the compound `CN[C@H](CC(C)C)C(=O)NC1C(=O)NC(CC#N)C(=O)NC2C(=O)NC3C(=O)NC(C(=O)NC(C(=O)OC)c4cc(OC)cc(OC)c4-c4cc3ccc4OC)C(O)c3ccc(c(Cl)c3)Oc3cc2cc(c3OC)Oc2ccc(cc2Cl)[C@H]1O` (stereo partly specified), the figures for the minimal inhibitory concentration (MIC) against Enterococcus faecalis [1], against Enterococcus faecalis [2] and against Staphylococcus aureus were 50 µg/mL (≈ 41.8 µM), 1.6 µg/mL (≈ 1.34 µM) and 1.6 µg/mL (≈ 1.34 µM), respectively.

In the case of `COC(=O)[C@H]1NC(=O)[C@H]2NC(=O)[C@H](NC(=O)[C@@H]3NC(=O)[C@H]4NC(=O)[C@H](NC(=O)[C@H](N)c5ccc(O)c(c5)Oc5cc4cc(O)c5C)[C@H](O)c4ccc(cc4)Oc4cc3cc(c4O)Oc3ccc(cc3)[C@H]2O)c2ccc(O)c(c2)-c2c(O)cc(O)cc21`, the minimal inhibitory concentration (MIC) against Enterococcus faecalis [1] is over 100 µg/mL; in the test with Enterococcus faecalis [2], 25 µg/mL (≈ 21.3 µM); against Staphylococcus aureus it was 0.8 µg/mL (≈ 0.681 µM).

Consider `CN[C@H](CC(C)C)C(=O)NC1C(=O)NC(CC(N)=O)C(=O)NC2C(=O)NC3C(=O)NC(C(=O)NC(C(=O)OC)c4cc(OC)cc(OC)c4-c4cc3ccc4OC)C(O)c3ccc(c(Cl)c3)Oc3cc2cc(c3OC)Oc2ccc(cc2Cl)[C@H]1O` (stereo partly specified), for which the MIC against Enterococcus faecalis [1] amounted to 50 µg/mL (≈ 41.2 µM); against Enterococcus faecalis [2], 1.6 µg/mL (≈ 1.32 µM); against Staphylococcus aureus it was 1.6 µg/mL (≈ 1.32 µM).
